Test results taken from patent EP0526936A2, “Cholesterol-lowering agents” (MERCK & CO. INC., priority 1991, dated 1993).

Key:
squalene synthase [1] = biological target: T1, squalene synthase (Saccharomyces cerevisiae, UniProt P29704); test: Squalene synthase assay, yeast enzyme; format: biochemical, S. cerevisiae W303-1A; conditions: yeast enzyme preparation; 12 min preincubation, 12 min reaction at 30 °C; read-out: Squalene Synthase Inhibition IC50 Yeast Enzyme (converted)
T1 construct: The pellet fractions were suspended at 10-20 mg/ml protein in breakage buffer containing 25% glycerol; endogenous in cells; host or cells: S. cerevisiae W303-1A
T1 sequence (P29704 1-444): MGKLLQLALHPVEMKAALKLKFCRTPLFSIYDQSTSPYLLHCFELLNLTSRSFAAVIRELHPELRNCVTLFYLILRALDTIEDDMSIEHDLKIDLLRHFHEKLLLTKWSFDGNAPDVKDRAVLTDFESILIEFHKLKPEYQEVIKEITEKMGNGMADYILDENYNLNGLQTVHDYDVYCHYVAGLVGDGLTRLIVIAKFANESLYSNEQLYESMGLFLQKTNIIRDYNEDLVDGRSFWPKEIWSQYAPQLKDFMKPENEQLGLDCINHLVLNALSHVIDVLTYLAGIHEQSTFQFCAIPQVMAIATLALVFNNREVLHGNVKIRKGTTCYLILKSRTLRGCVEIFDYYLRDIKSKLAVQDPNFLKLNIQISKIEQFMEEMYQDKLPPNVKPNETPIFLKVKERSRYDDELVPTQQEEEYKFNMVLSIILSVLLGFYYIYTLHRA
Protocol: (§1) The intrinsic squalene synthase inhibitory activity of representative compounds of this invention was measured by the standard in vitro protocol described below:
S. cerevisiae W303-1A (MATa ade2-1 canl-100 his3-11,15 leu2-3,112 trp1-1 ura3-1) was grown at 30 ° C for 24 hours in YPD medium ([…], 2% glucose) supplemented with 20 µg/mL adenine. The cells were washed and resuspended in a minimal volume of breakage buffer (100 mM KP04, pH 7.4, 3 mM DTT, 1 mM PMSF). The cells were added to the small chamber of the Bead-Beater Cell Disrupter (Biospec Products, Bartlesville, OK) containing 100 g of 0.5 mm glass beads. Buffer was added to fill the chamber. The sealed chamber was packed in ice and processed for 4 cycles of 30 sec with 2 min. cooling between cycles. Cell breakage was determined to be >90% by phase-contrast microscopy. The glass beads were removed by Whatman filter paper and the filtrate collected into an ice- immersed filter flask. The extract was centrifuged at 1500 x g for 10 min at 4°C. The pellet (P1) containing unbroken cells and cell walls was discarded. The supernatant (S1) was centrifuged at 30000 x g for 30 min at 4°C. The pellet (P2) contained about two-thirds of the total squalene synthase activity. The supernatant (S2) can be centrifuged at 100,000 x g for 60 min at 4°C to pellet the remaining activity (P3). The pellet fractions were suspended at 10-20 mg/ml protein in breakage buffer containing 25% glycerol. The activity was stable for several months at -80 ° C.
(§2) Reactions were performed in 1.2 mL polypropylene tube strips of eight. […] The reaction product was extracted with 0.4 mL heptane containing 0.4 µL carrier squalene 0.2 mL of the heptane extract was counted by liquid scintillation. […]
(§3) Percent inhibition is calculated by the formula: [formula]
lC50 values were determined by plotting the log of the concentration of the test compound versus the percentage inhibition. […]

squalene synthase [2] = biological target: T2, squalene synthase (Homo sapiens, UniProt P37268); test: Squalene synthase assay, HepG2 cell enzyme; format: biochemical; conditions: HepG2 enzyme preparation; 12 min preincubation, 12 min reaction at 30 °C; read-out: Squalene Synthase Inhibition IC50 HepG2 Enzyme (converted)
T2 construct: The HepG2 enzyme preparation was centrifuged at 34,000 rpm to separate the cytosol and microsomal enzymes; host or cells: HepG2
T2 sequence (P37268 1-417): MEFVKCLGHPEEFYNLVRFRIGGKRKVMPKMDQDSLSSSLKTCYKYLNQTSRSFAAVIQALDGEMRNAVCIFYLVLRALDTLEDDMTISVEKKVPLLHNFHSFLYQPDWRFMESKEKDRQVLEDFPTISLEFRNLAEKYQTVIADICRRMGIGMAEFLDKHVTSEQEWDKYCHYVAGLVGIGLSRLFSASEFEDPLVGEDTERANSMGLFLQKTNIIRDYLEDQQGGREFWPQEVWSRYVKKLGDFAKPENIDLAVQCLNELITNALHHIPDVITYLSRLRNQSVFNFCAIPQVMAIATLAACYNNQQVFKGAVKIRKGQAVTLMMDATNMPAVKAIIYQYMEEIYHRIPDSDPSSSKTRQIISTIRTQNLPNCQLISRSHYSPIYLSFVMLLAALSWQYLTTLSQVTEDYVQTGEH
Protocol: as §1
1. SOURCE: HEPG2 CELL LINE (Liver, hepatoblastoma, Human) ATCC No. HB 8065
Culture Medium: Minimum essential medium (MEM) with non-essential amino acids, sodium pyruvate, and 10% fetal bovine serum. The medium was changed twice weekly. […] The growth medium was prepared as listed below.
SUBCULTURE PROCEDURE: The medium was removed and washed with PBS (Phosphate-Buffered Saline 15.6 mM, pH 7.0). Fresh trypsin (0.25%)-EDTA (0.02%) with Hank's Balanced Salt solution was added and the flask was allowed to stand for a minute before the trypsin solution was removed. The flask was incubated at 370 C until cells detached. Fresh medium was added and the cells were dispersed and dispensed into new flasks. Subcultivation ratio: 1:6.
PREPARATION OF DELIPIDATED SERUM: Fetal calf serum (100 ml) and CAB-O-Sil (2 grams) were stirred overnight at 4°C and centrifuged at 16,000 rpm for 5 hrs. The supernantant was filtered and the serum was stored at 4 C.
48 hrs. prior to harvest, cells grown in MEM with 10% Fetal Calf serum were switched to MEM with 10% delipidated serum.
HARVEST: The medium was removed and the cells were washed with PBS. Fresh trypsin (0.25%)-EDTA (0.02%) with Hanks' Balanced Salt solution was added and allowed to stand and removed. The flask was incubated at 37 C until the cells detached. MEM medium (6 mL/flask) was added to suspend cells and combined into a centrifuge tube. […] Cells were counted ([…] yield from 18 flasks (75 cm^2)), and resuspended in 10 mL of 50mM HEPES (N-[2-Hydroxyethyl]piperazine-N'-[2-ethane-sulfonic acid]) containing 5mM MgCI2, 2mM MnCI2, 10mM DTT, pH 7.5 (enzyme suspension buffer). […]
as §2
Percent inhibition is calculated by the formula: [formula] […]

squalene synthase [3] = biological target: T3, squalene synthase (Rattus norvegicus, UniProt Q02769); test: Squalene synthase assay, rat liver microsomes; format: biochemical, rats; conditions: [4-14C]farnesyl-pyrophosphate, 20 minutes at 30 °C
T3 construct: from tissue; host or cells: liver microsomes of male Charles River CD rats fed 0.1% lovastatin
T3 sequence (Q02769 1-416): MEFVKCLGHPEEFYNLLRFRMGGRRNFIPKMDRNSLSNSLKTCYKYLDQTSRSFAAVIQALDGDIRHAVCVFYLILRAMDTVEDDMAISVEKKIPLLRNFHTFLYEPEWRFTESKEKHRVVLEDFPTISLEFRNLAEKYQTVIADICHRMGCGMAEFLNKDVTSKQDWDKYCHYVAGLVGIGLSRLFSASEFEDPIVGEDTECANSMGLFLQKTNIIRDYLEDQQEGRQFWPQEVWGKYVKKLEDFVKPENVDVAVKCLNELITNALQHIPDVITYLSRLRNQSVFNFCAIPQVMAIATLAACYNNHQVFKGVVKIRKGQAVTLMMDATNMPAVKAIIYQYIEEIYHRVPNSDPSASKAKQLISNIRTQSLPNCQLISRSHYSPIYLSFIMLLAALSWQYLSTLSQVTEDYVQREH
Protocol: Alternatively, the intrinsic squalene synthase inhibitory activity of the compounds formed in the fermentation of the microorganisms of the present invention may be measured by the standard in vitro protocol described below:
Male, CHARLES RIVER@ CD rats (120 to 150 g) were fed a diet containing 0.1% lovastatin for 4 days. The livers from these rats were homogenized in 5 volumes (mL/g) of ice cold 50 mM HEPES (4-(2-hydroxyethyl)-1-piperazine-ethanesulfonic acid), 5 mM EDTA(ethylenediaminetetraacetic acid) pH 7.5 with a Potter-Elvehjem type tissue grinder. The homogenate was centrifuged twice at 20,000 x g for 15 min. at 4°C, discarding the pellet each time. The supernatant was then centrifuged at 100,000 x g for 1 hr at 4°C. The resulting microsomal pellet was resuspended in a volume of the above homogenizing buffer equal to one-fifth the volume of the original homogenate. This microsomal preparation has a protein concentration of about 7 mg/mL. The microsomal suspensions were stored in aliquots at -70 °C. Squalene synthase activity in these aliquots is stable for a least several months. […]
This assay mix was degassed under a vacuum and flushed with N2. […] Ten mL of scintillation fluid was added to the heptane solution and radioactivity was determined by liquid scintillation counting.
as §3

Farnesyl Transferase = Farnesyl Transferase (Homo sapiens, UniProt P49356); test: Farnesyl-transferase assay (inhibition of Ras farnesylation in vitro); format: biochemical; conditions: ras-CVLS 3 μM, 60 min at room temperature
Protocol: FARNESYL-TRANSFERASE ASSAY
100 µL of 0.5 M DTT was added to 900 µL of 1.1 M HEPES, pH 7.5 and 55.5 mM MgCl2 to yield a 10X buffer consisting of 1.0 M HEPES, pH 7.5, 50 mM MgCl2 and 50 mM DTT.
The reaction mix was prepared as below:
A Blank reaction mix was also prepared with the negative control ras-protein, and the Total/Sample reaction mix received the ras-CVLS. The same volumes were used to prepare the Blank reaction mix as those in Table 1.
The farnesyl trasferase solution was prepared as shown below. The farnesyl transferase mix was prepared right before use.
• i. The assay volume was 100 µL, the volume of sample to be tested was 5 µL and the time of incubation is 60 min at room temperature. • ii. The TECAN 8000/505, an automatic pipetting station, added 50 µL of water plus 5 µL of sample to the assay tubes. • iii. The ras-CVLS reaction mix (20 µL) was manually added to totals and unknowns. The negative control ras-protein reaction mix (20 µL) was manually added to the blank tubes. • iv. The farnesyl transferase mix (25 µL) was manually added to all tubes to initiate the reaction and the assay tubes were kept at room temperature for 60 min. • v. The assay was stopped placing the assay tubes in an ice bath for 5 minutes. • vi. 1.0 mL of 1.0 M HCI in 100% ethanol was then added to each tube. The assay tubes (uncapped) were incubated at 37 ° C for 60 min. to facilitate the hydrolysis of the FPP. • vii. Assay tubes were harvested through a TOMTEC 96-well harvestor (6 x 16 with extended tips, or SKATRON cell harvestor) onto LKB double thickness filter mats. • viii. The cell harvestor was adjusted so that each well was washed with 10 mL of 100% ethanol. • ix. Filter mats were baked in microwave oven for 6-8 min. to dry the filtermats. • x. The filter mats were placed in counting bags, 30 mL of LKB ,8-scint cocktail was added and the filter mats were counted for 120 sec. in the LKB β-plate counter.
Percent inhibition was calculated according to the following equation: [formula] […]

Row | Structure (SMILES) | IC50 (squalene synthase [1]) | IC50 (squalene synthase [2]) | IC50 (squalene synthase [3]) | IC50 (Farnesyl Transferase)
1 | CCCCCCCC(=O)CCCCCC/C=C/C(C(=O)NC(Cc1ccc(O)cc1)C(=O)O)C(O)(CC(=O)O)C(=O)O (stereo not shown) [Compound A] | 12.7 µM | 70.3 µM | 15 µM | 8 µM
2 | CCCCCCCC(=O)CCCCCC/C=C/C(C(=O)NC(Cc1ccccc1)C(=O)O)C(O)(CC(=O)O)C(=O)O (stereo not shown) [Compound C] | 1.74 µM | 33.5 µM | – | 4.5 µM
3 | CCCCCCCC(=O)CCCCCC/C=C/C(C(=O)NC(Cc1c[nH]c2ccccc12)C(=O)O)C(O)(CC(=O)O)C(=O)O (stereo not shown) [Compound D] | 0.358 µM | 0.472 µM | – | 3.3 µM
